# Test results from patent US4115541A (priority 1975, dated 1978).
# Read-outs that look alike come from different tables or passages of the source.
# Tests used:
# [1] = rabbits i.v., ~1 mg/kg EHDP
# [2] = Distribution of 99mTc-Sn-AEDP and 85Sr in rabbits, carrier effect of AEDP (Example 4); assay type: in vivo, rabbit; conditions: 2 Hrs.
# Description: Adult New Zealand albino rabbits having an average weight of 3.8 kg were utilized. Strontium-85 was employed as a standard for comparison. […] Each dosage is contained in a volume of 1 ml.
# The animals were sacrificed serially from 1 to 24 hours after injection and the activities in major organs were determined by counting multiple samples from each organ in a scintillation well counter (the technetium-99m counts were corrected for the Compton contributions from the strontium-85 activity in the technetium-99m energy window). Multiple samples were counted from the tibia, femur, spine and pelvic bones; the total activity in the skeleton was estimated by assuming the whole skeleton consisted of equal proportions by weight of tibia, spine, femur and pelvis and that the skeletal mass was 10% of the body weight. The red marrow was sampled from the femur and the total marrow was assumed to be 2.2% of the total body weight. Similarly, blood volume was assumed to be 7% and the skeletal muscle 43% of the body weight. The whole liver and both kidneys were weighed and multiple samples from each were counted to measure the total activity in each organ.
# In another series of experiments carried out as described in Example 2, the distribution of technetium 99m from its 99m-technetium-tin-methylene diphosphonate complex was determined in albino rabbits, again in comparison with strontium-85.
# The distribution of technetium 99m from its 99m technetium-tin-1-amino-ethane-1,1-diphosphonate complex was determined as in Example 3 and compared with the distribution of strontium-85.
# [3] = rabbits, 2 Hrs.
# [4] = physical; cited from earlier work
# [5] = rabbits, 2 Hrs.; remark: listed apart in the source
compound,measurement,setting,value
"[85Sr+2].[Cl-].[Cl-] [^85 Sr, 85Sr chloride, reference compound]","Blood, % dose/1% body weight",[1]; 1 Hr.,1.70 % dose/1% body weight
same,"Bone(Avg), % dose in whole organ",[1]; 1 Hr.,56.0 % dose
same,"Bone(Avg), % dose/1% body weight",[1]; 1 Hr.,5.60 % dose/1% body weight
same,"Femur, % dose/1% body weight",[1]; 1 Hr.,4.90 % dose/1% body weight
same,"Kidneys, % Dose in Whole Organ",[1]; 1 Hr.,0.80 % dose
same,"Kidneys, % dose/1% body weight",[1]; 1 Hr.,1.75 % dose/1% body weight
same,"Liver, % dose/1% body weight",[1]; 1 Hr.,0.59 % dose/1% body weight
same,"Marrow, % Dose in Whole Organ",[1]; 1 Hr.,0.91 % dose
same,"Marrow, % dose/1% body weight",[1]; 1 Hr.,0.41 % dose/1% body weight
same,"Muscle, % dose/1% body weight",[1]; 1 Hr.,0.31 % dose/1% body weight
same,"Pelvis, % dose/1% body weight",[1]; 1 Hr.,7.07 % dose/1% body weight
same,"Spine, % dose/1% body weight",[1]; 1 Hr.,7.03 % dose/1% body weight
same,"Tibia, % dose/1% body weight",[1]; 1 Hr.,3.62 % dose/1% body weight
same,"Blood, % dose/1% body weight",[1]; 2 Hrs,1.01 % dose/1% body weight
same,"Bone(Avg), % dose/1% body weight",[1]; 2 Hrs,6.44 % dose/1% body weight
same,"Femur, % dose/1% body weight",[1]; 2 Hrs,5.74 % dose/1% body weight
same,"Kidneys, % Dose in Whole Organ",[1]; 2 Hrs,0.64 % dose
same,"Kidneys, % dose/1% body weight",[1]; 2 Hrs,1.40 % dose/1% body weight
same,"Liver, % dose/1% body weight",[1]; 2 Hrs,0.43 % dose/1% body weight
same,"Marrow, % Dose in Whole Organ",[1]; 2 Hrs,0.76 % dose
same,"Marrow, % dose/1% body weight",[1]; 2 Hrs,0.34 % dose/1% body weight
same,"Muscle, % Dose in Whole Organ",[1]; 2 Hrs,8.8 % dose
same,"Muscle, % dose/1% body weight",[1]; 2 Hrs,0.21 % dose/1% body weight
same,"Pelvis, % dose/1% body weight",[1]; 2 Hrs,7.70 % dose/1% body weight
same,"Spine, % dose/1% body weight",[1]; 2 Hrs,7.59 % dose/1% body weight
same,"Tibia, % dose/1% body weight",[1]; 2 Hrs,4.73 % dose/1% body weight
same,"Urine, % Dose",[1]; 2 Hrs,18.0 % dose
same,"Blood, % dose/1% body weight",[1]; 4 Hrs,0.55 % dose/1% body weight
same,"Bone(Avg), % dose/1% body weight",[1]; 4 Hrs,6.81 % dose/1% body weight
same,"Femur, % dose/1% body weight",[1]; 4 Hrs,6.17 % dose/1% body weight
same,"Kidneys, % Dose in Whole Organ",[1]; 4 Hrs,0.34 % dose
same,"Kidneys, % dose/1% body weight",[1]; 4 Hrs,0.71 % dose/1% body weight
same,"Liver, % dose/1% body weight",[1]; 4 Hrs,0.26 % dose/1% body weight
same,"Marrow, % Dose in Whole Organ",[1]; 4 Hrs,0.50 % dose
same,"Marrow, % dose/1% body weight",[1]; 4 Hrs,0.23 % dose/1% body weight
same,"Muscle, % dose/1% body weight",[1]; 4 Hrs,0.15 % dose/1% body weight
same,"Pelvis, % dose/1% body weight",[1]; 4 Hrs,8.02 % dose/1% body weight
same,"Spine, % dose/1% body weight",[1]; 4 Hrs,7.82 % dose/1% body weight
same,"Tibia, % dose/1% body weight",[1]; 4 Hrs,5.13 % dose/1% body weight
same,"Blood, % Dose in Whole Organ",[1]; 24 Hrs,0.29 % dose
same,"Blood, % dose/1% body weight",[1]; 24 Hrs,0.04 % dose/1% body weight
same,"Bone(Avg), % dose/1% body weight",[1]; 24 Hrs,5.21 % dose/1% body weight
same,"Femur, % dose/1% body weight",[1]; 24 Hrs,4.83 % dose/1% body weight
same,"Kidneys, % Dose in Whole Organ",[1]; 24 Hrs,0.03 % dose
same,"Kidneys, % dose/1% body weight",[1]; 24 Hrs,0.06 % dose/1% body weight
same,"Liver, % dose/1% body weight",[1]; 24 Hrs,0.02 % dose/1% body weight
same,"Marrow, % Dose in Whole Organ",[1]; 24 Hrs,0.10 % dose
same,"Marrow, % dose/1% body weight",[1]; 24 Hrs,0.05 % dose/1% body weight
same,"Muscle, % Dose in Whole Organ",[1]; 24 Hrs,1.00 % dose
same,"Pelvis, % dose/1% body weight",[1]; 24 Hrs,5.26 % dose/1% body weight
same,"Spine, % dose/1% body weight",[1]; 24 Hrs,6.47 % dose/1% body weight
same,"Tibia, % dose/1% body weight",[1]; 24 Hrs,4.27 % dose/1% body weight
same,"Blood, % Dose in Whole Organ",[2]; AEDP 0.05 mg/kg,2.50 % Dose
same,"Liver, % Dose in Whole Organ",[2]; AEDP 0.5 mg/kg,0.720 % Dose
same,"Ave Bone, % Dose/1% body weight",[3]; MDP 0.01 mg/kg,11.85 % Dose/1% body weight
same,"Blood, % dose/1% body weight",[3]; MDP 0.01 mg/kg,0.47 % Dose/1% body weight
same,"Femur, % dose/1% body weight",[3]; MDP 0.01 mg/kg,13.93 % Dose/1% body weight
same,"Kidneys, % Dose in Whole Organ",[3]; MDP 0.01 mg/kg,0.34 % Dose
same,"Kidneys, % dose/1% body weight",[3]; MDP 0.01 mg/kg,0.54 % Dose/1% body weight
same,"Liver, % Dose in Whole Organ",[3]; MDP 0.01 mg/kg,0.65 % Dose
same,"Liver, % dose/1% body weight",[3]; MDP 0.01 mg/kg,0.16 % Dose/1% body weight
same,"Marrow, % Dose in Whole Organ",[3]; MDP 0.01 mg/kg,0.53 % Dose
same,"Marrow, % dose/1% body weight",[3]; MDP 0.01 mg/kg,0.24 % Dose/1% body weight
same,"Muscle, % dose/1% body weight",[3]; MDP 0.01 mg/kg,0.13 % Dose/1% body weight
same,"Pelvis, % dose/1% body weight",[3]; MDP 0.01 mg/kg,13.55 % Dose/1% body weight
same,"Spine, % dose/1% body weight",[3]; MDP 0.01 mg/kg,12.78 % Dose/1% body weight
same,"Tibia, % dose/1% body weight",[3]; MDP 0.01 mg/kg,7.14 % Dose/1% body weight
same,"Ave Bone, % Dose/1% body weight",[3]; MDP 0.05 mg/kg,7.29 % Dose/1% body weight
same,"Blood, % dose/1% body weight",[3]; MDP 0.05 mg/kg,0.52 % Dose/1% body weight
same,"Femur, % dose/1% body weight",[3]; MDP 0.05 mg/kg,9.10 % Dose/1% body weight
same,"Kidneys, % Dose in Whole Organ",[3]; MDP 0.05 mg/kg,0.46 % Dose
same,"Kidneys, % dose/1% body weight",[3]; MDP 0.05 mg/kg,0.9 % Dose/1% body weight
same,"Liver, % Dose in Whole Organ",[3]; MDP 0.05 mg/kg,0.71 % Dose
same,"Liver, % dose/1% body weight",[3]; MDP 0.05 mg/kg,0.22 % Dose/1% body weight
same,"Marrow, % Dose in Whole Organ",[3]; MDP 0.05 mg/kg,0.53 % Dose
same,"Marrow, % dose/1% body weight",[3]; MDP 0.05 mg/kg,0.24 % Dose/1% body weight
same,"Muscle, % dose/1% body weight",[3]; MDP 0.05 mg/kg,0.14 % Dose/1% body weight
same,"Pelvis, % dose/1% body weight",[3]; MDP 0.05 mg/kg,8.33 % Dose/1% body weight
same,"Spine, % dose/1% body weight",[3]; MDP 0.05 mg/kg,6.75 % Dose/1% body weight
same,"Tibia, % dose/1% body weight",[3]; MDP 0.05 mg/kg,4.94 % Dose/1% body weight
same,"Ave Bone, % Dose/1% body weight",[3]; MDP 0.1 mg/kg,9.17 % Dose/1% body weight
same,"Blood, % dose/1% body weight",[3]; MDP 0.1 mg/kg,0.56 % Dose/1% body weight
same,"Femur, % dose/1% body weight",[3]; MDP 0.1 mg/kg,10.0 % Dose/1% body weight
same,"Kidneys, % Dose in Whole Organ",[3]; MDP 0.1 mg/kg,0.66 % Dose
same,"Kidneys, % dose/1% body weight",[3]; MDP 0.1 mg/kg,1.00 % Dose/1% body weight
same,"Liver, % dose/1% body weight",[3]; MDP 0.1 mg/kg,0.30 % Dose/1% body weight
same,"Marrow, % Dose in Whole Organ",[3]; MDP 0.1 mg/kg,0.57 % Dose
same,"Marrow, % dose/1% body weight",[3]; MDP 0.1 mg/kg,0.26 % Dose/1% body weight
same,"Muscle, % dose/1% body weight",[3]; MDP 0.1 mg/kg,0.22 % Dose/1% body weight
same,"One femur, % dose in whole organ",[3]; MDP 0.1 mg/kg,2.80 % Dose
same,"Pelvis, % dose/1% body weight",[3]; MDP 0.1 mg/kg,12.2 % Dose/1% body weight
same,"Spine, % dose/1% body weight",[3]; MDP 0.1 mg/kg,8.45 % Dose/1% body weight
same,"Tibia, % dose/1% body weight",[3]; MDP 0.1 mg/kg,6.05 % Dose/1% body weight
same,"Ave Bone, % Dose/1% body weight",[3]; MDP 0.5 mg/kg,8.77 % Dose/1% body weight
same,"Blood, % dose/1% body weight",[3]; MDP 0.5 mg/kg,0.45 % Dose/1% body weight
same,"Femur, % dose/1% body weight",[3]; MDP 0.5 mg/kg,11.32 % Dose/1% body weight
same,"Kidneys, % Dose in Whole Organ",[3]; MDP 0.5 mg/kg,0.45 % Dose
same,"Kidneys, % dose/1% body weight",[3]; MDP 0.5 mg/kg,0.69 % Dose/1% body weight
same,"Liver, % Dose in Whole Organ",[3]; MDP 0.5 mg/kg,0.69 % Dose
same,"Liver, % dose/1% body weight",[3]; MDP 0.5 mg/kg,0.23 % Dose/1% body weight
same,"Marrow, % Dose in Whole Organ",[3]; MDP 0.5 mg/kg,0.67 % Dose
same,"Marrow, % dose/1% body weight",[3]; MDP 0.5 mg/kg,0.30 % Dose/1% body weight
same,"Muscle, % dose/1% body weight",[3]; MDP 0.5 mg/kg,0.13 % Dose/1% body weight
same,"Pelvis, % dose/1% body weight",[3]; MDP 0.5 mg/kg,8.68 % Dose/1% body weight
same,"Spine, % dose/1% body weight",[3]; MDP 0.5 mg/kg,8.92 % Dose/1% body weight
same,"Tibia, % dose/1% body weight",[3]; MDP 0.5 mg/kg,6.16 % Dose/1% body weight
same,half-life (radionuclide),[4],65 days
same,"Kidneys, % Dose in Whole Organ",[5]; EHDP 0.01 mg/kg,0.43 % Dose
same,"Liver, % Dose in Whole Organ",[5]; EHDP 0.01 mg/kg,0.74 % Dose
same,"Marrow, % Dose in Whole Organ",[5]; EHDP 0.01 mg/kg,0.42 % Dose
same,"One Tibia, % Dose in Whole Organ",[5]; EHDP 0.01 mg/kg,2.60 % Dose
same,"Kidneys, % Dose in Whole Organ",[5]; EHDP 0.05 mg/kg,0.46 % Dose
same,"Liver, % Dose in Whole Organ",[5]; EHDP 0.05 mg/kg,0.77 % Dose
same,"Marrow, % Dose in Whole Organ",[5]; EHDP 0.05 mg/kg,0.61 % Dose
same,"Blood, % Dose in Whole Organ",[5]; EHDP 0.1 mg/kg,3.10 % Dose
same,"Kidneys, % Dose in Whole Organ",[5]; EHDP 0.1 mg/kg,0.30 % Dose
same,"Liver, % Dose in Whole Organ",[5]; EHDP 0.1 mg/kg,0.64 % Dose
same,"Marrow, % Dose in Whole Organ",[5]; EHDP 0.1 mg/kg,0.43 % Dose
same,"Muscle, % Dose in Whole Organ",[5]; EHDP 0.1 mg/kg,5.0 % Dose
same,"Kidneys, % Dose in Whole Organ",[5]; EHDP 0.5 mg/kg,0.48 % Dose
same,"Liver, % Dose in Whole Organ",[5]; EHDP 0.5 mg/kg,0.76 % Dose
same,"Marrow, % Dose in Whole Organ",[5]; EHDP 0.5 mg/kg,0.34 % Dose
same,"Urine, % Dose",[5]; EHDP 0.5 mg/kg,19.67 % Dose
